Values of other authors, collected in publication PMC11345828 (Journal of Medicinal Chemistry, 2024).

Conditions: mouse, in vivo; cited from earlier work

Cc1c(-c2c(-c3ccc(F)o3)sc3ncnc(O[C@H](Cc4ccccc4OCc4ccnn4CC(F)(F)F)C(=O)O)c23)ccc(OCCN2CCN(C)CC2)c1Cl [Compound S63845]
maximum tolerated dose lower than in wild-type mice: ~3 fold
